Test results from patent publication US11826402B2, “Combination therapy involving antibodies against claudin 18.2 for treatment of metastatic pancreatic adenocarcinoma” (Astellas Pharma Inc., priority 2013, dated 2023).
“Also recorded” adds a separate entry of the source.

Tests used:
[1] = tested on: CLDN18.2 expression in DANG; assay: Effect of chemotherapeutic agents on CLDN18.2 expression (RT-PCR, western blot); type: cell-based, human; settings: DANG pretreated 2 days, Gem 1 ng/ml or Gem 1 ng/ml+Ox 10 ng/ml, versus untreated
Experimental: FIGS. 30A and 30B show the effect of treatment with chemotherapeutic agents on CLDN18.2 expression (RNA).
Actin was used to show equal loading of proteins.
The area of each bar is divided to indicate the percentage of cells in G0/G1, S and G2 phase.
For RNA isolation from pancreatic cancer cell lines, cells were seeded in 10 cm dishes and grown for 2-3 days until 80% confluent. RNA was isolated according to instructions supplied with the RNeasy® Mini Kit (Qiagen). cDNA preparation was performed following manufacturers instructions provided with the SuperScript® III First Strand kit (Invitrogen). RNA and cDNA samples were stored at −80° C.
Quantitative analysis of CLDN18.2 transcripts was performed by amplifying oligo(dT)-primed cDNAs in a 40 cycle PCR reaction using PCR primers #5054s (5′-[…]-3′) and #5060 as (5′-[…]-3′) differentiating between CLDN18.1 and CLDN18.2 isoforms. The reaction was prepared with SYBR Green (QuantiTect SYBR Green PCR Kit, Qiagen), which intercalates in double stranded DNA. […]
For isolation of proteins of pancreatic cancer cell lines, cells were seeded in 10 cm dishes and grown for 2-3 days until 80% confluent. […] Protein concentration was measured in a spectrophotometer (Absorption at 280 nm) and samples were stored at −80° C. until use. […]

NUGC-4 = assay: IMAB362-induced ADCC on gastric cancer cells, also with ZA/IL-2 cultivated PBMCs; type: cell-based, human
Experimental: Specific killing was determined in luciferase assays.

Suit2-LVT cells = assay: FACS binding to Suit2-LVT cells; design: species or system human; settings: 200 μg/ml antibody
Experimental: Cells were harvested with PBS/5 mM EDTA or Trypsin/EDTA from an exponentially growing culture at 70-85% confluency. Cells were counted, centrifuged for 5 min (468 g) and the pellet was resuspended in FACS buffer (2% FCS, 0.1% sodium azide in PBS) adjusting the concentration to 2×10^6/ml. 100 μl cells were plated in round bottom 96-well plates and again centrifuged (5 min, 468 g). […] Then, 200 μl FACS buffer was added to each well and plates were centrifuged (5 min, 468 g). The supernatant was removed and washing was repeated. Secondary goat anti-human antibodies (FC specific, F(ab′)2 conjugated with APC (Dianova)) were diluted (1:100) in FACS buffer and 30 μl was added to each well. Plates were incubated for 30 min at 4° C. After incubation plates were washed again two times with 200 μl FACS buffer and the pellet was finally resuspended in 100 μl FACS buffer for measurement FACS Array Bioanalyzer (BD) according to GA_018_BD FACS Array bioanalyzer.
In addition to tissue processing, it is possible that the result represents unexpected inhibiting effects of the isotype control antibody targeting CLDN6. To investigate this option, the Suit2-LVT cells were analyzed for CLDN6 expression and IMAB027 binding in FACS.

DANG xenografts = assay: Subcutaneous DANG xenograft treatment; type: in vivo, mice; settings: low CLDN18.2 expressing DANG xenografts
AsPC1 = assay: IMAB362-mediated ADCC assay; type: cell-based, human; settings: at least 2 donors
MiaPaCa2 = assay: IMAB362-mediated CDC assay (healthy human serum pool); type: cell-based
Experimental: (§1) In addition, the LVT cell lines and the parental strains were tested in CDC.
(§2) CHO-K1 cells stably transfected with CLDN18.2 (p740) and luciferase were used as assay positive controls in each assay (FIG. 23A). […] This is most likely due to the fact that neoplastic cells over-express one or more membrane bound complement inhibitory proteins (e.g. CD46, CD55 and CD59) (Geis et al., Curr Cancer Drug Targets, 2010 10:922-931). However, if expression of these inhibitory proteins on tumor cells affect clinical outcome of an antibody therapy is still contradictory (Dzietczenia et al. Med. Oncol. 2010, 27:743-6; Weng and Levy at al., Blood 2001 98:1352-7). In addition to the endogenous cell lines, all the LVT cell lines were tested in CDC assays.

Patu8902 = assay: as above; type: cell-based
Experimental: as §1, §2

Row | Compound | mRNA and protein levels of CLDN18.2 [1] | mRNA and protein levels of CLDN18.2 ([1]; listed as Gem) | ADCC activity with ZA/IL-2 cultivated PBMCs (NUGC-4; PBMCs cultivated 14 days with ZA/IL-2) | maximum lysis rates (ADCC) (NUGC-4; up to 200 μg/ml, 24 hours, human PBMC E:T 40:1) | binding to cells in FACS (Suit2-LVT cells) | growth inhibition compared to high CLDN18.2 expressing xenograft tumors (DANG xenografts) | ADCC EC50 (AsPC1) | ADCC Max. lysis (AsPC1) | CDC EC50 (MiaPaCa2) | CDC Max. lysis (MiaPaCa2) | CDC EC50 (Patu8902) | CDC Max. lysis (Patu8902)
1 | Nc1ccn([C@@H]2O[C@H](CO)[C@@H](O)C2(F)F)c(=O)n1 [gemcitabine, 4-amino-1-(2-deoxy-2,2-difluoro-β-D-erythro-pentofuranosyl)pyrimidin-2(1H)-one] | increased; also recorded: upregulation | upregulation |  |  |  |  |  |  |  |  |  | 
2 | IMAB362: chimeric IgG1 antibody directed against CLDN18.2, developed by Ganymed Pharmaceuticals AG |  |  | Strong IMAB362-dependent ADCC activity | 80-100% | strong binding | reduced | n.m.. | n.m. | n.m. | n.m. | n.m. | n.m.
